{"source": "patent US11147272B2", "about": "“Pyridone compounds and agricultural and horticultural fungicides comprising the same as active ingredients” (MITSUI CHEMICALS AGRO, INC., priority 2017, dated 2021)", "key": {"Magnaporthe grisea": {"tested_on": "Magnaporthe grisea", "assay": "whole plant or invertebrate", "format": "in vivo", "settings": "Blast on rice; class of control value"}, "Alternaia brassicicola": {"tested_on": "Alternaia brassicicola", "assay": "Test Example C: Alternaria sooty spot on cabbage", "format": "in vivo", "settings": "Alternaria sooty spot on cabbage; class of control value", "description": "Seeds of a test plant (cabbage variety: Shikidori) were planted and cultivated until the cotyledons extended.\n<Control Value> Control value=100{1−(n/3)}"}, "Puccinia recondita": {"tested_on": "Puccinia recondita", "assay": "Test Example E: Brown rust on wheat", "format": "in vivo", "settings": "Brown rust on wheat; class of control value"}, "Phytophthora infestans": {"tested_on": "Phytophthora infestans", "assay": "whole plant or invertebrate", "format": "in vivo", "settings": "Late blight on tomato; class of control value"}, "Botrytis cinerea": {"tested_on": "Botrytis cinerea", "assay": "Test Example B: Gray mold on tomato", "settings": "Gray mold on tomato; class of control value"}, "Plasmopara viticola": {"tested_on": "Plasmopara viticola", "assay": "Test Example G: Downy mildew on vine", "settings": "Downy mildew on vine (Neomuscat); 250 ppm spray, 2.5 ml/pot; assessed 7 to 10 days after inoculation"}, "[1]": {"tested_on": "Colletotrichum orbiculare", "assay": "Test Example H: Anthracnose on cucumber", "settings": "Anthracnose on cucumber (Sagami Hanjiro); 250 ppm spray, 2.5 ml/pot; assessed 6 to 10 days after inoculation", "procedure": "Seeds of a test plant (cucumber variety: Sagami Hanjiro) were planted and cultivated until the first leaf appeared. In the test, the inventive compounds were dissolved into dimethyl sulfoxide-methanol mixture solution (volume ratio: 9/1), and the resultant solutions were diluted with well water to a concentration of 250 ppm to obtain the drug solutions. The drug solutions were sprayed to the test plant (2.5 ml/pot). After the drug solutions dried, a conidial suspension (2-4×10^5 conidia/ml) of Colletotrichum orbiculare was inoculated to the plant by spraying. After the inoculation, the plant was kept in a mist chamber at room temperature of 20 to 23° C. for about 24 hours to promote the onset of disease. The degrees of disease development were investigated 6 to 10 days after the inoculation, and the effectiveness of the drug solutions was evaluated.\nIn Test Examples described above, the degrees of disease development were evaluated in increments of 0.05 from 0 (as no incidence of disease) to 3 (as the degree of disease development in an untreated plant group). Further, control values were calculated using the following equation based on the degree of disease development.\nn=Degree of disease development in each treated group\nIn the table, H: more than 50% control value, L: 50% or less control value, and nt: not tested."}, "[2]": {"tested_on": "Blumeria graminis f. sp. hordei", "assay": "Test Example D: Powdery mildew on barley", "settings": "Powdery mildew on barley; class of control value"}}, "data": [{"smiles": "CCn1c(-c2c(F)cc(OCCOC)cc2F)c(C(C)(C)C)cc(Cl)c1=O", "note": "[compound 83]", "values": [{"measurement": "Test A control value class", "setting": "Magnaporthe grisea", "result": "H (more than 50% control value)"}, {"measurement": "Test C control value class", "setting": "Alternaia brassicicola", "result": "H (more than 50% control value)"}, {"measurement": "Test E control value class", "setting": "Puccinia recondita", "result": "H (more than 50% control value)"}, {"measurement": "Test F control value class", "setting": "Phytophthora infestans", "result": "L (50% or less control value)"}, {"measurement": "Test B control value class", "setting": "Botrytis cinerea", "result": "H (more than 50% control value)"}, {"measurement": "Test G control value class", "setting": "Plasmopara viticola", "result": "H (more than 50% control value)"}, {"measurement": "Test H control value class", "setting": "[1]", "result": "H (more than 50% control value)"}, {"measurement": "Test D control value class", "setting": "[2]", "result": "L (50% or less control value)"}]}, {"smiles": "COCCOc1cc(F)c(-c2c(C(C)(C)C)cc(Cl)c(=O)n2C)c(F)c1", "note": "[compound 84]", "values": [{"measurement": "Test A control value class", "setting": "Magnaporthe grisea", "result": "L (50% or less control value)"}, {"measurement": "Test C control value class", "setting": "Alternaia brassicicola", "result": "H (more than 50% control value)"}, {"measurement": "Test E control value class", "setting": "Puccinia recondita", "result": "L (50% or less control value)"}, {"measurement": "Test F control value class", "setting": "Phytophthora infestans", "result": "L (50% or less control value)"}, {"measurement": "Test B control value class", "setting": "Botrytis cinerea", "result": "L (50% or less control value)"}, {"measurement": "Test G control value class", "setting": "Plasmopara viticola", "result": "L (50% or less control value)"}, {"measurement": "Test H control value class", "setting": "[1]", "result": "H (more than 50% control value)"}, {"measurement": "Test D control value class", "setting": "[2]", "result": "L (50% or less control value)"}]}, {"smiles": "COc1cc(F)c(-c2c(C(C)(C)C)cc(Cl)c(=O)n2C)c(F)c1", "note": "[compound 85]", "values": [{"measurement": "Test A control value class", "setting": "Magnaporthe grisea", "result": "H (more than 50% control value)"}, {"measurement": "Test C control value class", "setting": "Alternaia brassicicola", "result": "H (more than 50% control value)"}, {"measurement": "Test E control value class", "setting": "Puccinia recondita", "result": "H (more than 50% control value)"}, {"measurement": "Test F control value class", "setting": "Phytophthora infestans", "result": "L (50% or less control value)"}, {"measurement": "Test B control value class", "setting": "Botrytis cinerea", "result": "H (more than 50% control value)"}, {"measurement": "Test G control value class", "setting": "Plasmopara viticola", "result": "L (50% or less control value)"}, {"measurement": "Test H control value class", "setting": "[1]", "result": "H (more than 50% control value)"}, {"measurement": "Test D control value class", "setting": "[2]", "result": "L (50% or less control value)"}]}, {"smiles": "CCn1c(-c2c(F)cc(F)cc2F)c(CN(C)C(C)C)cc(Cl)c1=O", "note": "[compound 86]", "values": [{"measurement": "Test A control value class", "setting": "Magnaporthe grisea", "result": "L (50% or less control value)"}, {"measurement": "Test C control value class", "setting": "Alternaia brassicicola", "result": "H (more than 50% control value)"}, {"measurement": "Test E control value class", "setting": "Puccinia recondita", "result": "L (50% or less control value)"}, {"measurement": "Test F control value class", "setting": "Phytophthora infestans", "result": "L (50% or less control value)"}, {"measurement": "Test B control value class", "setting": "Botrytis cinerea", "result": "L (50% or less control value)"}, {"measurement": "Test G control value class", "setting": "Plasmopara viticola", "result": "L (50% or less control value)"}, {"measurement": "Test H control value class", "setting": "[1]", "result": "L (50% or less control value)"}, {"measurement": "Test D control value class", "setting": "[2]", "result": "L (50% or less control value)"}]}, {"smiles": "CCn1c(-c2c(F)cc(OC)cc2F)c(C(CC(C)C)OC)cc(Cl)c1=O", "note": "(centres unmarked) [compound 87]", "values": [{"measurement": "Test A control value class", "setting": "Magnaporthe grisea", "result": "L (50% or less control value)"}, {"measurement": "Test C control value class", "setting": "Alternaia brassicicola", "result": "H (more than 50% control value)"}, {"measurement": "Test E control value class", "setting": "Puccinia recondita", "result": "H (more than 50% control value)"}, {"measurement": "Test F control value class", "setting": "Phytophthora infestans", "result": "L (50% or less control value)"}, {"measurement": "Test B control value class", "setting": "Botrytis cinerea", "result": "H (more than 50% control value)"}, {"measurement": "Test G control value class", "setting": "Plasmopara viticola", "result": "L (50% or less control value)"}, {"measurement": "Test H control value class", "setting": "[1]", "result": "H (more than 50% control value)"}, {"measurement": "Test D control value class", "setting": "[2]", "result": "H (more than 50% control value)"}]}, {"smiles": "CCn1c(-c2c(F)cc(OC)cc2F)c(CN(C)C(C)C)cc(Cl)c1=O", "note": "[compound 88]", "values": [{"measurement": "Test A control value class", "setting": "Magnaporthe grisea", "result": "L (50% or less control value)"}, {"measurement": "Test C control value class", "setting": "Alternaia brassicicola", "result": "H (more than 50% control value)"}, {"measurement": "Test E control value class", "setting": "Puccinia recondita", "result": "H (more than 50% control value)"}, {"measurement": "Test F control value class", "setting": "Phytophthora infestans", "result": "L (50% or less control value)"}, {"measurement": "Test B control value class", "setting": "Botrytis cinerea", "result": "H (more than 50% control value)"}, {"measurement": "Test G control value class", "setting": "Plasmopara viticola", "result": "L (50% or less control value)"}, {"measurement": "Test H control value class", "setting": "[1]", "result": "L (50% or less control value)"}, {"measurement": "Test D control value class", "setting": "[2]", "result": "H (more than 50% control value)"}]}, {"smiles": "CCn1c(-c2c(F)cc(F)cc2F)c(C(O)CC(C)C)cc(Cl)c1=O", "note": "(centres unmarked) [compound 90]", "values": [{"measurement": "Test A control value class", "setting": "Magnaporthe grisea", "result": "H (more than 50% control value)"}, {"measurement": "Test C control value class", "setting": "Alternaia brassicicola", "result": "H (more than 50% control value)"}, {"measurement": "Test E control value class", "setting": "Puccinia recondita", "result": "H (more than 50% control value)"}, {"measurement": "Test F control value class", "setting": "Phytophthora infestans", "result": "L (50% or less control value)"}, {"measurement": "Test B control value class", "setting": "Botrytis cinerea", "result": "H (more than 50% control value)"}, {"measurement": "Test G control value class", "setting": "Plasmopara viticola", "result": "H (more than 50% control value)"}, {"measurement": "Test H control value class", "setting": "[1]", "result": "H (more than 50% control value)"}, {"measurement": "Test D control value class", "setting": "[2]", "result": "H (more than 50% control value)"}]}]}
